Data taken from PubChem BioAssay AID330 (DTP/NCI, 2004).
“And” between values parts separate entries of the source, which are not always exact repeats. Identical values can stand only once. Toxic doses and inconclusive results are not listed.

Tested on: P388 leukemia ip, CD2F1 mice, survival T/C
Assay: NCI In Vivo Anticancer Drug Screen. Data for tumor model P388 Leukemia (intraperitoneal) in CD2F1 (CDF1) mice
Conditions: endpoint: median survival time, higher = longer survival
Outline: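 Mice carrying the transplanted tumor received test compound or vehicle. Survival was recorded in each group, and the value is the treated-group measurement divided by that of the vehicle-treated control group.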

[1] = dose: 50.0 mg/kg/injection, schedule: Q01DX005 (ip), vehicle: water
[2] = dose: 100.0 mg/kg/injection, schedule: Q01DX005 (ip), vehicle: water
[3] = dose: 25.0 mg/kg/injection, schedule: Q01DX009 (ip), vehicle: saline with Tween-80
[4] = dose: 50.0 mg/kg/injection, schedule: Q01DX009 (ip), vehicle: saline with Tween-80
[5] = dose: 100.0 mg/kg/injection, schedule: Q01DX009 (ip), vehicle: saline with Tween-80
[6] = dose: 60.0 mg/kg/injection, schedule: Q01DX005 (ip), vehicle: saline with Tween-80
[7] = dose: 120.0 mg/kg/injection, schedule: Q01DX005 (ip), vehicle: saline with Tween-80
[8] = dose: 240.0 mg/kg/injection, schedule: Q01DX005 (ip), vehicle: saline with Tween-80
[9] = dose: 50.0 mg/kg/injection, schedule: Q01DX005 (ip), vehicle: saline with Tween-80
[10] = dose: 100.0 mg/kg/injection, schedule: Q01DX005 (ip), vehicle: saline with Tween-80
[11] = dose: 200.0 mg/kg/injection, schedule: Q01DX005 (ip), vehicle: saline with Tween-80

SMILES: COc1cc(-c2ccc(O)cc2)c(OC)c(O)c1-c1ccc(O)c(O)c1
- T/C (dose: 0.6 mg/kg/injection, schedule: Q01DX009 (ip), vehicle: saline): 100 % of control
- T/C (dose: 1.2 mg/kg/injection, schedule: Q01DX009 (ip), vehicle: saline): 95 % of control
- T/C (dose: 10.0 micrograms/kg/injection, schedule: Q01DX009 (ip), vehicle: saline with Tween-80): 111 % of control
- T/C (dose: 20.0 micrograms/kg/injection, schedule: Q01DX009 (ip), vehicle: saline with Tween-80): 105 % of control
- T/C (dose: 40.0 micrograms/kg/injection, schedule: Q01DX009 (ip), vehicle: saline with Tween-80): 104 % of control
- T/C (dose: 80.0 micrograms/kg/injection, schedule: Q01DX009 (ip), vehicle: saline with Tween-80): 105 % of control

SMILES: O=[N+]([O-])c1ccc(-c2nc3ncncc3[nH]2)cc1
- T/C (dose: 6.25 mg/kg/injection, schedule: Q01DX009 (ip), vehicle: Klucel (hydroxypropylcellulose) (HPC)): 107 % of control
- T/C (dose: 12.5 mg/kg/injection, schedule: Q01DX009 (ip), vehicle: Klucel (hydroxypropylcellulose) (HPC)): 99 % of control

SMILES: O=C1C2C3C=CC(O3)C2C(=O)N1CCN1CCOCC1 (stereo unspecified)
- T/C (dose: 25.0 mg/kg/injection, schedule: Q01DX005 (ip), vehicle: water): 96 % of control
- T/C [1]: 97 % of control
- T/C (dose: 100.0 mg/kg/injection, schedule: Q01DX005 (ip), vehicle: other): 93 % of control
- T/C [2]: 102 % of control
- T/C (dose: 200.0 mg/kg/injection, schedule: Q01DX005 (ip), vehicle: other): 101 % of control

SMILES: O=N[O-].O=N[O-].[NH-]CC[NH-].[Pt+2]
- T/C [3]: 95 % of control
- T/C [4]: 100 % of control
- T/C [5]: 95 % of control

SMILES: CSc1nc(SC)c2c(CO)c(Br)n(Cc3ccccc3)c2n1
- T/C (dose: 100.0 mg/kg/injection, schedule: Q04DX002 (ip), vehicle: saline with Tween-80): 98 % of control
- T/C (dose: 200.0 mg/kg/injection, schedule: Q04DX002 (ip), vehicle: saline with Tween-80): 94 % of control
- T/C (dose: 400.0 mg/kg/injection, schedule: Q04DX002 (ip), vehicle: saline with Tween-80): 88 % of control

SMILES: Cc1cc(NC(=O)CCc2ccc(N3C(N)=NC(N)=NC3(C)C)cc2)ccc1S(=O)(=O)F
- T/C (dose: 1.5 mg/kg/injection, schedule: Q01DX009 (ip), vehicle: saline sonified): 122 % of control
- T/C [3]: 150 % of control
- T/C [5]: 113 % of control

SMILES: CCC[CH2][Sn]1([CH2]CCC)[O]C2C(CO)OC(n3ccc(N)nc3=O)C2[O]1 (stereo unspecified)
- T/C (dose: 0.3 mg/kg/injection, schedule: Q03HX015 (ip), vehicle: Klucel (hydroxypropylcellulose) (HPC)): 106 % of control
- T/C (dose: 0.44 mg/kg/injection, schedule: Q03HX015 (ip), vehicle: Klucel (hydroxypropylcellulose) (HPC)): 117 % of control
- T/C (dose: 0.67 mg/kg/injection, schedule: Q03HX015 (ip), vehicle: Klucel (hydroxypropylcellulose) (HPC)): 119 % of control and 121 % of control
- T/C (dose: 0.9 mg/kg/injection, schedule: Q01DX005 (ip), vehicle: Klucel (hydroxypropylcellulose) (HPC)): 109 % of control
- T/C (dose: 1.0 mg/kg/injection, schedule: Q03HX015 (ip), vehicle: Klucel (hydroxypropylcellulose) (HPC)): 123 % of control
- T/C (dose: 1.5 mg/kg/injection, schedule: Q03HX015 (ip), vehicle: Klucel (hydroxypropylcellulose) (HPC)): 120 % of control and 124 % of control
- T/C (dose: 1.56 mg/kg/injection, schedule: Q01DX009 (ip), vehicle: other): 102 % of control and 86 % of control
- T/C (dose: 2.0 mg/kg/injection, schedule: Q01DX005 (ip), vehicle: Klucel (hydroxypropylcellulose) (HPC)): 121 % of control
- T/C (dose: 3.0 mg/kg/injection, schedule: Q01DX005 (ip), vehicle: Klucel (hydroxypropylcellulose) (HPC)): 122 % of control
- T/C (dose: 3.12 mg/kg/injection, schedule: Q01DX009 (ip), vehicle: other): 97 % of control

SMILES: COc1cc2c(c(-c3cn(C)c4ccccc34)c1OC)OCO2
- T/C [6]: 97 % of control
- T/C [7]: 98 % of control
- T/C [8]: 97 % of control

SMILES: C[Si](C)(C)CNC(=O)OCc1ccccc1
- T/C (dose: 60.0 mg/kg/injection, schedule: Q01DX005 (ip), vehicle: saline): 97 % of control
- T/C (dose: 120.0 mg/kg/injection, schedule: Q01DX005 (ip), vehicle: saline): 95 % of control
- T/C (dose: 240.0 mg/kg/injection, schedule: Q01DX005 (ip), vehicle: saline): 95 % of control

SMILES: CCOC(=O)/N=[N+](\[O-])c1ccc(Br)cc1
- T/C (dose: 12.5 mg/kg/injection, schedule: Q01DX001 (ip), vehicle: Klucel (hydroxypropylcellulose) (HPC)): 109 % of control
- T/C (dose: 25.0 mg/kg/injection, schedule: Q01DX001 (ip), vehicle: Klucel (hydroxypropylcellulose) (HPC)): 115 % of control
- T/C (dose: 50.0 mg/kg/injection, schedule: Q01DX001 (ip), vehicle: Klucel (hydroxypropylcellulose) (HPC)): 103 % of control

SMILES: COC(=O)C1=C(O)C(C(=O)OC)=C2C1=C(C(=O)OC)C(=O)C2C(=O)OC (stereo unspecified)
- T/C [1]: 97 % of control
- T/C [2]: 98 % of control
- T/C (dose: 200.0 mg/kg/injection, schedule: Q01DX005 (ip), vehicle: water): 95 % of control

SMILES: CC1(C)N=C(N)N=C(N)N1c1ccc(CCCCc2ccc(S(=O)(=O)F)cc2)cc1
- T/C (dose: 12.0 mg/kg/injection, schedule: Q01DX009 (ip), vehicle: saline sonified): 152 % of control
- T/C (dose: 18.0 mg/kg/injection, schedule: Q01DX009 (ip), vehicle: saline sonified): 152 % of control
- T/C [4]: 95 % of control
- T/C (dose: 50.0 mg/kg/injection, schedule: Q04DX003 (ip), vehicle: saline with Tween-80): 100 % of control

SMILES: C/C(=N\NC(N)=O)C1=C(O)C(C(C)C)NC1=O (stereo unspecified)
- T/C [4]: 93 % of control
- T/C [5]: 99 % of control
- T/C (dose: 200.0 mg/kg/injection, schedule: Q01DX009 (ip), vehicle: saline with Tween-80): 92 % of control
- T/C (dose: 400.0 mg/kg/injection, schedule: Q01DX009 (ip), vehicle: saline with Tween-80): 99 % of control

SMILES: Nn1cnnc1SCc1ccccc1
- T/C (dose: 100.0 mg/kg/injection, schedule: Q01DX001 (ip), vehicle: other): 100 % of control
- T/C (dose: 200.0 mg/kg/injection, schedule: Q01DX001 (ip), vehicle: other): 100 % of control
- T/C (dose: 400.0 mg/kg/injection, schedule: Q01DX001 (ip), vehicle: other): 100 % of control

SMILES: Cc1c(C)c2ccc3occc(=O)c3c2oc1=O
- T/C [9]: 102 % of control
- T/C [10]: 101 % of control
- T/C [11]: 100 % of control

SMILES: CC(C)CC(Nc1nncs1)Nc1nncs1
- T/C [6]: 96 % of control
- T/C [7]: 90 % of control
- T/C [8]: 100 % of control

SMILES: C=C1C(=O)C23C(O)C1CCC2C12COC3(O)C(O)C1C(C)(C)CCC2OC(C)=O (stereo unspecified)
- T/C (dose: 10.0 mg/kg/injection, schedule: Q01DX009 (ip), vehicle: saline with Tween-80): 117 % of control
- T/C (dose: 20.0 mg/kg/injection, schedule: Q01DX009 (ip), vehicle: saline with Tween-80): 117 % of control
- T/C [3]: 110 % of control

SMILES: O=[N+]([O-])c1ccccc1OCC1CO1 (stereo unspecified)
- T/C (dose: 25.0 mg/kg/injection, schedule: Q01DX009 (ip), vehicle: Klucel (hydroxypropylcellulose) (HPC)): 106 % of control
- T/C (dose: 50.0 mg/kg/injection, schedule: Q01DX009 (ip), vehicle: Klucel (hydroxypropylcellulose) (HPC)): 105 % of control
- T/C (dose: 100.0 mg/kg/injection, schedule: Q01DX009 (ip), vehicle: Klucel (hydroxypropylcellulose) (HPC)): 105 % of control

SMILES: CCOC(=O)C1C(=O)CN(C(=O)OC)C1C (stereo unspecified)
- T/C [9]: 96 % of control
- T/C [10]: 99 % of control
- T/C [11]: 93 % of control

SMILES: O=c1ccnc(Sc2ccc([N+](=O)[O-])cc2[N+](=O)[O-])[nH]1
- T/C (dose: 100.0 mg/kg/injection, schedule: Q04DX003 (ip), vehicle: saline with Tween-80): 99 % of control
- T/C (dose: 200.0 mg/kg/injection, schedule: Q04DX003 (ip), vehicle: saline with Tween-80): 99 % of control

SMILES: CCn1c2ccccc2c2cc(N=C3C(=O)N(C)c4ccccc43)ccc21
- T/C (dose: 60.0 mg/kg/injection, schedule: Q01DX005 (ip), vehicle: Klucel (hydroxypropylcellulose) (HPC)): 90 % of control
- T/C (dose: 120.0 mg/kg/injection, schedule: Q01DX005 (ip), vehicle: Klucel (hydroxypropylcellulose) (HPC)): 92 % of control
- T/C (dose: 240.0 mg/kg/injection, schedule: Q01DX005 (ip), vehicle: Klucel (hydroxypropylcellulose) (HPC)): 90 % of control

SMILES: CS(=O)(=O)C(Cl)(Cl)Cl
- T/C [6]: 105 % of control
- T/C [7]: 107 % of control
- T/C [8]: 112 % of control

SMILES: CCOC(=O)C(C(=O)OCC)n1c(=O)c2c(ncn2C)n(C)c1=O
- T/C (dose: 100.0 mg/kg/injection, schedule: Q01DX001 (ip), vehicle: Klucel (hydroxypropylcellulose) (HPC)): 110 % of control
- T/C (dose: 200.0 mg/kg/injection, schedule: Q01DX001 (ip), vehicle: Klucel (hydroxypropylcellulose) (HPC)): 101 % of control
- T/C (dose: 400.0 mg/kg/injection, schedule: Q01DX001 (ip), vehicle: Klucel (hydroxypropylcellulose) (HPC)): 105 % of control
